Measured values from ChEMBL document CHEMBL1201862, “PubChem BioAssay data set” (2004).
Activity calls are given as the source filed them. Cut-off read from the data, not from the text of the source, for most assays here: actives have a measured IC50 and inactives only a lower limit.

How the values were obtained:
Assay type in all cases: functional
[1] = biological target: 26S proteasome non-ATPase regulatory subunit 14 (Homo sapiens, UniProt O00487); experiment: inhibition of proteasome subunit RPN11 – biochemical, fluorescence polarization, uHTS hits, confirmation (AID 602368)
[2] = biological target: T1, Sentrin-specific protease 6 (Homo sapiens, UniProt Q9GZR1);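 note: Luminescence-based dose-response confirmatory assay of SENP6 inhibition, following up an ultra-high-throughput screen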
T1 sequence (Q9GZR1 whole entry): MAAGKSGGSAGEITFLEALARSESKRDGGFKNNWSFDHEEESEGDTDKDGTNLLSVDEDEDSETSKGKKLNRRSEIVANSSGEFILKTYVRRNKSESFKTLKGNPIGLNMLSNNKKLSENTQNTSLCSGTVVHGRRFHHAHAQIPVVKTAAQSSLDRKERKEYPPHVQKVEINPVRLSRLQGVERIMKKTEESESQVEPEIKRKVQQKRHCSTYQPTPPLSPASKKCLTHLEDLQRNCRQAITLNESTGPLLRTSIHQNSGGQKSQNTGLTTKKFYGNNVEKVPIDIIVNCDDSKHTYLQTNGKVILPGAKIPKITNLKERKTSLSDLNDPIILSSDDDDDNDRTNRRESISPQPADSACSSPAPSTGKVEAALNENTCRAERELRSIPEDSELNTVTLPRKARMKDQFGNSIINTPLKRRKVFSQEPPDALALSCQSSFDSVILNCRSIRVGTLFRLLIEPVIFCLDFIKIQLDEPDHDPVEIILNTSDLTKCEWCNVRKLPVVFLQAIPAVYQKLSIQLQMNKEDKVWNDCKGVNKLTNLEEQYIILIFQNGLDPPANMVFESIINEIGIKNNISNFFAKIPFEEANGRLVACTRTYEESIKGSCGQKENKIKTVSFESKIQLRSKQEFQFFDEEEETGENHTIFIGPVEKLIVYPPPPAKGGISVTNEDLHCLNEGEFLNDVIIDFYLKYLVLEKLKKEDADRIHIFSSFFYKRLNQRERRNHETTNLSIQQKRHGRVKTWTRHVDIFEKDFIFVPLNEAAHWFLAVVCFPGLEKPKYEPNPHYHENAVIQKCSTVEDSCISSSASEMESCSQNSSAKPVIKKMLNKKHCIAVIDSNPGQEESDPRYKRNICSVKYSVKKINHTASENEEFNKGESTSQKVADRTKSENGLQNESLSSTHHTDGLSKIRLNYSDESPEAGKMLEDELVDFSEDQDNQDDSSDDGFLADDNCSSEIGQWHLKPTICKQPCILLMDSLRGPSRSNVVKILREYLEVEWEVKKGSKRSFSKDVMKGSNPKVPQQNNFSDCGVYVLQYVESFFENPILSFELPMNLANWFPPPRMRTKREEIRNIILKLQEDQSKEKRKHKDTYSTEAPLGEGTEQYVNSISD

Caspase-3 = biological target: T2, Caspase-3 (Homo sapiens, UniProt P42574);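 note: Dose-response selectivity test against caspase-3 for candidate inhibitors of sentrin-specific proteases (SENPs)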
T2 sequence (P42574 whole entry): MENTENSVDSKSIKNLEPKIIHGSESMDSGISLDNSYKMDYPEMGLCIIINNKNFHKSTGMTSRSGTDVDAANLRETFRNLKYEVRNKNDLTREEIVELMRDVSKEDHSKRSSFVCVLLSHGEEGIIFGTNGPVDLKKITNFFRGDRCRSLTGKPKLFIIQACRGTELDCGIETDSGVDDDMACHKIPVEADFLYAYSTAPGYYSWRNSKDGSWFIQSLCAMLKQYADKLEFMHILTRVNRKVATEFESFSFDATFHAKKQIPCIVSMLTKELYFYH

26S proteasome non-ATPase regulatory subunit 14, sequence (O00487 whole entry): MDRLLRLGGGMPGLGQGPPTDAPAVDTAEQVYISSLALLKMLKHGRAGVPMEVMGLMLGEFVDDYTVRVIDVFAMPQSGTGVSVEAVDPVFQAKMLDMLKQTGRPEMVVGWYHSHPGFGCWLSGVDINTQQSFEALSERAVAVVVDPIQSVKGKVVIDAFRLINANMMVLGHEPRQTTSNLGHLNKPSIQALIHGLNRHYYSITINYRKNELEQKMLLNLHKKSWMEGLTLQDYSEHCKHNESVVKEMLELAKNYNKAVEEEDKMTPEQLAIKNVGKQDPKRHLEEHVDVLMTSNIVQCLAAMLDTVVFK

| Structure (SMILES) | IC50 [1] | IC50 [2] | IC50 (Caspase-3) |
| --- | --- | --- | --- |
| O=[N+]([O-])c1ccc(N/N=C/c2ccc[nH]2)cc1 | 8.96 µM (active) |  |  |
| CC(=O)N(/N=C1\Sc2ccccc2C1=O)c1cccc(C)c1 |  | 6.06 µM (active) | 65.8 µM (active) |
